Measurements taken from patent publication US10273224B2, “Substituted pyrimidine compounds, compositions and medicinal applications thereof” (JUBILANT BIOSYS LIMITED, priority 2013, dated 2019).
Structures can show the parent of a compound that is named as a salt.

Biological target: T1, EGFR (L858R & T790M) (Homo sapiens, UniProt P00533, L858R/T790M)
T1 construct: GST; purchased Proqinase
Test: EGFR (L858R & T790M) inhibition assay, HTRF method
Settings: biochemical HTRF; EGFR (T790M/L858R) 2.5 nM, ATP 5 μM, 60 min room temperature
Protocol: Example 25: Biological Activity: EGFR T790M Assay Protocol
The objective of the experiment is to find the IC50 for the compounds using HTRF method.
Reagents for Enzyme Assay:
1. Enzyme Assay Buffer: 60 mM HEPES (pH 7.4), 50 mM NaCl, 20 mM MgCl2, 5 mM MnCl2, filter using 0.2 µm pore size, store at 4° C.
Supplements (add fresh to the enzyme buffer): Make 1M DTT stock, 5% BSA stock and 0.1M Na3OV4 stored at 4° C. Enzyme assay buffer 50 ml, 1 M DTT 100 μl, 5% BSA 500 μl, 0.1M Na3OV4 50 μl.
2. GST-hEGFR (L858R), active: EGFR (T790M/L858R), active (Proqinase), 3.6 μM stock; 2.5 nM in final assay.
3. Gastrin Precusor-Biotinylated: Gastrin precursor (Tyr87) biotinylated peptide (EEAY*GWM), Cell Signaling Tech 1310, Lot-7, Want final 0.5 μM in assay
4. ATP: 10 mM stock in 100 μl Enzyme assay buffer pH 7.4 prepared freshly, want 5 μM in final assay.
5. Test compounds: Dissolve powders in 100% DMSO to a final stock concentration of 10 mM (volume in μL to add for 10 mM=mg powder×10^5/MW). Final comp concentration in the assay plate is starting at 10 μM.
1. HTRF buffer: 50 mM Tris-HCl, pH-7.5, 100 mM NaCl, 0.1% BSA, 0.05% Tween20, 0.5 mM EDTA, filter using 0.2 µm pore size, store at 4° C.
Phycolink® Streptavidin-Allophycocyanin (SA-APC) Prozyme, Cat. #PJ25S, Lot #896 085, 2.06 mg/mL, APC concentration is 11.6 μM, streptavidin concentration is 15.5 μM. Want 12 nM final in assay (based on streptavidin concentration).
2. Europium-W1024-PT-66 Anti Phospho Tyrosine Antibody: Perkin Elmer (AD0068), monoclonal IgG1 that recognizes phospho tyrosine peptide 100 μg/ml stock. Want 0.1 nM final in assay.
• 1. Make the compound dilution by TECAN as per the above scheme. • 2. Add 16 μl of diluted compound to the assay plate by using TECAN • 3. Add 10 μl of enzyme mix to each well except mins. • 4. Add 20 μl of substrate and ATP mix into each well of the assay plate manually. • 5. Incubate the plate at room temperature for 60 min with shaking. • 6. Meanwhile prepare the HTRF mix and add 75 μl to the HTRF plate. • 7. When the incubation is over, transfer 10 μl of the reaction mixture to the HTRF assay plate and incubate for 30 min at room temperature with shaking. • 8. Take the reading in Pherastar (ext 337 nm, em 665 & 620 nm). • 9. Analyze the results using Graphpad prism after calculation the z factor, signal window and % inhibition to get the IC50.
Compounds having IC50<10 nM are designated as “A”; 10-100 nM are designated as “B”; and >100 nM as “C”.

T1 sequence (P00533 25-1210 T790M/L858R): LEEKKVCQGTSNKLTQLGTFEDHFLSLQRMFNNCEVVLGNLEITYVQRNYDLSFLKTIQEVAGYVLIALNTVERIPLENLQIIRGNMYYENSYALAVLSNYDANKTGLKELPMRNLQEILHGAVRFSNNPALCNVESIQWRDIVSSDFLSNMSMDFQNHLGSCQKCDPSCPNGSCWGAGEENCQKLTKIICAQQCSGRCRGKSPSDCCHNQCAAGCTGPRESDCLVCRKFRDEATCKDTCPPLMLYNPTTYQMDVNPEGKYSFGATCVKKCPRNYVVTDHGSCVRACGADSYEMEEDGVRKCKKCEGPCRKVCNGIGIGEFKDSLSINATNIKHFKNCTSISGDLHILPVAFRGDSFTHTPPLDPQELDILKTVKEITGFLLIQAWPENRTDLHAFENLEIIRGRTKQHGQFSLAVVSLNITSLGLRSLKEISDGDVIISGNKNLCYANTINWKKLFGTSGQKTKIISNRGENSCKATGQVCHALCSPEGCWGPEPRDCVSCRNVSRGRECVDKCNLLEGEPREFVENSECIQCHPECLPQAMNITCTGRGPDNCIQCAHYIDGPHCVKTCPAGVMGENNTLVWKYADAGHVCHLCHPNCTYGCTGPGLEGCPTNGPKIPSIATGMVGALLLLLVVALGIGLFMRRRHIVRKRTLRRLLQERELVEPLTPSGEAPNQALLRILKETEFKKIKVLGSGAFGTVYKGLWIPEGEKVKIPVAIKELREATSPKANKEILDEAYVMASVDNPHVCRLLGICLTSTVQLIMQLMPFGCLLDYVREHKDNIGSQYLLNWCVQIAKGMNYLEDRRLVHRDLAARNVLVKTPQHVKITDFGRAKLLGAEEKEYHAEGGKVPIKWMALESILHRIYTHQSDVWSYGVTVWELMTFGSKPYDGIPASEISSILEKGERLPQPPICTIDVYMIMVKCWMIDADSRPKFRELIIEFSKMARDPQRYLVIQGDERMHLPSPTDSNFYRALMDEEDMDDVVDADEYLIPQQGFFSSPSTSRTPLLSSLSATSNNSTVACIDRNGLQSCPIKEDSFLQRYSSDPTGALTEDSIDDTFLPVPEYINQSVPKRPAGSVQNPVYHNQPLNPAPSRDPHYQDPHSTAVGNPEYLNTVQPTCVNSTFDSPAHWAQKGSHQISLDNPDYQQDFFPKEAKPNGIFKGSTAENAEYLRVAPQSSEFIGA

SMILES	IC50
C=CC(=O)Nc1cc(Nc2nc(Nc3cnn(C)c3)ncc2Cl)ccc1F [Compound I-66, N-(5-((5-chloro-2-((1-methyl-1H-pyrazol-4-yl)amino)pyrimidin-4-yl)amino)-2-fluorophenyl)acrylamide]	10 to 100 nM
C=CC(=O)Nc1cccc(Nc2nc(Nc3cnn(CCN(C)C)c3)ncc2Cl)c1 [Compound I-5, N-(3-((5-chloro-2-((1-(2-(dimethylamino)ethyl)-1H-pyrazol-4-yl)amino)pyrimidin-4-yl)amino)phenyl)acrylamide]	10 to 100 nM
C=CC(=O)NC1CCCC(Oc2nc(Nc3cnn(C)c3)ncc2Cl)C1 (single isomer, unassigned) [I-89 (Isomer 2), N-(3-((5-chloro-2-((1-methyl-1H-pyrazol-4-yl)amino)pyrimidin-4-yl)oxy)cyclohexyl)acrylamide]	> 100 nM
C=CC(=O)Nc1ccnc(Nc2nc(Nc3cnn(C)c3)ncc2Cl)c1 [Compound I-116, N-(2-((5-chloro-2-((1-methyl-1H-pyrazol-4-yl)amino)pyrimidin-4-yl)amino)pyridin-4-yl)acrylamide]	10 to 100 nM
C=CC(=O)Nc1cccc(Nc2nc(Nc3ncc(C)s3)ncc2Cl)c1 [Compound I-123, N-(3-((5-chloro-2-((5-methylthiazol-2-yl)amino)pyrimidin-4-yl)amino)phenyl)acrylamide]	10 to 100 nM
C=CC(=O)Nc1cccc(Nc2nc(Nc3c(C)nn(C)c3C)ncc2Cl)c1 [Compound I-11, N-(3-((5-chloro-2-((1,3,5-trimethyl-1H-pyrazol-4-yl)amino)pyrimidin-4-yl)amino)phenyl)acrylamide]	> 100 nM
C=CC(=O)Nc1cccc(Nc2nc(Nc3cnn(C4CCN(C)CC4)c3)ncc2C(F)(F)F)c1 [Compound I-14, N-(3-((2-((1-(1-methylpiperidin-4-yl)-1H-pyrazol-4-yl)amino)-5-(trifluoromethyl)pyrimidin-4-yl)amino)phenyl)acrylamide]	> 100 nM
C=CC(=O)Nc1cccc(Nc2nc(Nc3cnn(CC(C)(C)O)c3)ncc2Cl)c1 [Compound I-17, N-(3-((5-chloro-2-((1-(2-hydroxy-2-methylpropyl)-1H-pyrazol-4-yl)amino)pyrimidin-4-yl)amino)phenyl)acrylamide]	> 100 nM
C=CC(=O)Nc1cccc(Oc2nc(Nc3cc4n(n3)CCN(C)C4)ncc2Cl)c1 [Compound I-78, N-(3-((5-chloro-2-((5-methyl-4,5,6,7-tetrahydropyrazolo[1,5-a]pyrazin-2-yl)amino)pyrimidin-4-yl)oxy)phenyl)acrylamide]	10 to 100 nM
C=CC(=O)Nc1cccc(Nc2nc(Nc3cnn(CCOC)c3C)ncc2Cl)c1 [Compound I-3, N-(3-((5-chloro-2-((1-(2-methoxyethyl)-5-methyl-1H-pyrazol-4-yl)amino)pyrimidin-4-yl)amino)phenyl)acrylamide]	10 to 100 nM
C=CC(=O)Nc1cccc(Nc2nc(Nc3cc(CN4CCOCC4)n(C)n3)ncc2Cl)c1 [Compound I-46, N-(3-((5-chloro-2-((1-methyl-5-(morpholinomethyl)-1H-pyrazol-3-yl)amino)pyrimidin-4-yl)amino)phenyl)acrylamide]	> 100 nM
C=CC(=O)N1CCCC(Nc2nc(Nc3cnn(C4CCC4)c3)ncc2Cl)C1 (single isomer, unassigned) [II-6 (Enantiomer 2), 1-(3-((5-chloro-2-((1-cyclobutyl-1H-pyrazol-4-yl)amino)pyrimidin-4-yl)amino)piperidin-1-yl)prop-2-en-1-one]	> 100 nM
CN(C)C/C=C/C(=O)NC1CCCC(Oc2nc(Nc3cnn(C)c3)ncc2Cl)C1 (single isomer, unassigned) [I-91 (Isomer 2), (E)-N-(3-((5-chloro-2-((1-methyl-1H-pyrazol-4-yl)amino)pyrimidin-4-yl)oxy)cyclohexyl)-4-(dimethylamino)but-2-enamide]	> 100 nM
C=CC(=O)Nc1ccc(F)c(Nc2nc(Nc3cn(C)nc3C)ncc2Cl)c1 (single isomer, unassigned) [Compound I-70, N-(3-((5-chloro-2-((1,3-dimethyl-1H-pyrazol-4-yl)amino)pyrimidin-4-yl)amino)-4-fluorophenyl)acrylamide]	< 10 nM
C=CC(=O)Nc1ccc(F)c(Nc2nc(Nc3cnn(C)c3)ncc2Cl)c1 [Compound I-39, N-(3-((5-chloro-2-((1-methyl-1H-pyrazol-4-yl)amino)pyrimidin-4-yl)amino)-4-fluorophenyl)acrylamide]	< 10 nM
C=CC(=O)Nc1cccc(C(C)Nc2nc(Nc3cnn(C)c3)ncc2Cl)c1 (stereo not shown) [Compound I-56, N-(3-(1-((5-chloro-2-((1-methyl-1H-pyrazol-4-yl)amino)pyrimidin-4-yl)amino)ethyl)phenyl)acrylamide]	> 100 nM
CN1CCC(n2cc(Nc3ncc(Cl)c(Nc4cccc(NC(=O)C=C5CCC5)c4)n3)cn2)CC1 [Compound I-29, N-(3-((5-chloro-2-((1-(1-methylpiperidin-4-yl)-1H-pyrazol-4-yl)amino)pyrimidin-4-yl)amino)phenyl)-2-cyclobutylideneacetamide]	> 100 nM

Further lines, results first:

IC50	SMILES
> 100 nM	C=C(C)C(=O)Nc1cccc(Nc2nc(Nc3cnn(C4CCN(C)CC4)c3)ncc2Cl)c1 [Compound I-9, N-(3-((5-chloro-2-((1-(1-methylpiperidin-4-yl)-1H-pyrazol-4-yl)amino)pyrimidin-4-yl)amino)phenyl)methacrylamide]
> 100 nM	C=CC(=O)NC1CCCC(Nc2nc(Nc3cnn(CCN(C)C)c3)ncc2Cl)C1 (stereo not shown) [Compound I-99, N-(3-((5-chloro-2-((1-(2-(dimethylamino)ethyl)-1H-pyrazol-4-yl)amino)pyrimidin-4-yl)amino)cyclohexyl)acrylamide]
> 100 nM	C=CC(=O)N[C@H]1CCCC[C@@H](Nc2nc(Nc3cnn(C)c3)ncc2Cl)C1 (single isomer, unassigned) [I-112 (Isomer 1)]
> 100 nM	C=CC(=O)Nc1cccc(Nc2nc(Nc3cnn(Cc4cccc(C)n4)c3)ncc2Cl)c1 [Compound I-52, N-(3-((5-chloro-2-((1-((6-methylpyridin-2-yl)methyl)-1H-pyrazol-4-yl)amino)pyrimidin-4-yl)amino)phenyl)acrylamide]
10 to 100 nM	C=CC(=O)N[C@H]1CCC[C@@H](Nc2nc(Nc3cnn(C)c3)ncc2Cl)C1 (single isomer, unassigned) [I-104 (Enantiomer 3)]
10 to 100 nM	C#CC(=O)Nc1cccc(Nc2nc(Nc3cnn(C)c3)ncc2Cl)c1 [Compound I-32, N-(3-((5-chloro-2-((1-methyl-1H-pyrazol-4-yl)amino)pyrimidin-4-yl)amino)phenyl)propiolamide]
> 100 nM	CN1CCC(n2cc(Nc3ncc(Cl)c(Nc4ccc(F)c(NC(=O)C=C5CCCCC5)c4)n3)cn2)CC1 [Compound I-27, N-(5-((5-chloro-2-((1-(1-methylpiperidin-4-yl)-1H-pyrazol-4-yl)amino)pyrimidin-4-yl)amino)-2-fluorophenyl)-2-cyclohexylideneacetamide]
> 100 nM	C=CC(=O)Nc1cccc(Nc2nc(Nc3cc(CN4CCC4)n(C)n3)ncc2Cl)c1 [Compound I-42, N-(3-((2-((5-(azetidin-1-ylmethyl)-1-methyl-1H-pyrazol-3-yl)amino)-5-chloropyrimidin-4-yl)amino)phenyl)acrylamide, acetate salt]
> 100 nM	C=CC(=O)N1CCC(Nc2nc(Nc3cnn(C)c3)ncc2Cl)C1 (racemic) [II-7 (Racemic), 1-(3-((5-chloro-2-((1-methyl-1H-pyrazol-4-yl)amino)pyrimidin-4-yl)amino)pyrrolidin-1-yl)prop-2-en-1-one]
> 100 nM	C=CC(=O)Nc1cccc(Nc2nc(Nc3cnn(C)c3C)ncc2Cl)c1 [Compound I-23, N-(3-((5-chloro-2-((1,5-dimethyl-1H-pyrazol-4-yl)amino)pyrimidin-4-yl)amino)phenyl)acrylamide]
10 to 100 nM	C=CC(=O)Nc1cccc(Nc2nc(Nc3cc(C)no3)ncc2Cl)c1 [Compound I-125, N-(3-((5-chloro-2-((3-methylisoxazol-5-yl)amino)pyrimidin-4-yl)amino)phenyl)acrylamide]
